Consider one substance from US20260293937A1, “SHRIMP FEED AND METHODS OF USE THEREOF” (Organicin Scientific, Inc., priority 2023, published 2026).

Values joined by “and” are separate entries in the source; they are usually repeats but may differ in a detail not shown here. Equal entries are not always repeated. No end group written: not given here.

The term MIC denotes the lowest concentration that inhibits growth of the organism. A higher MIC goes with a less susceptible organism.

Common to all, as to assay type: cell-based
One assay has as its system Vibrio parahaemolyticus. The assay is described as follows: Minimum inhibitory concentration by serial two-fold dilution spotted on Vibrio lawns. Particulars: individual V. parahaemolyticus lines; 37° C., 16 to 20 hours. The method, then: (§1) This Example describes the materials and methods, and results of a serial dilution experiment to determine the Minimum Inhibitory Concentration (MIC) of Nisin in reducing a concentration of pathogenic Vibrio.
(§2) On the day before the experiment, Vibrio stock were prepared by sterilizing an inoculation loop, cooling the product, and extracting cells. Such extract was incubated at 37° C. for 16 to 20 hours. The density of cells was normalized to a cell density of approximately 10^7 to 10^8 CFU/mL and 100 uL lawns were prepared at a cell density of about 10^6 to 10^7 CFU using sterile glass beads. Four lawns were made so that each Nisin dilution could be tested on two identical plates.
(§3) 5 μL of two-fold dilutions (See Table 1, below) of Nisin (Immucell; 99% pure), or shrimp feed (without Nisin), citric acid, or DH20 negative controls, respectively, were spotted on the plates, which were incubated at 37° C. for 16 to 20 hours. The minimum inhibitory concentration was determined. In particular, plates were characterized based upon the presence (0) or absence (1) of Vibrio growth.

Another assay has as its system Vibrio alginolyticus. The assay is described as above. The following applies: individual V. alginolyticus lines; 37° C., 16 to 20 hours. The method, then: as §1, §2, §3
The test system of another assay is Vibrio cholerae. The description is as above. The following applies: individual V. cholerae lines; 37° C., 16 to 20 hours. Here is the method: as §1, §2, §3
A further assay concerns pathogenic Vibrio. The assay can be described thus: Minimum inhibitory concentration, all Vibrio species. Particulars: all species of Vibrio. Here is the method:
as §1, §2, §3

Regarding “Nisin: Nisin (Immucell; 99% pure) in Example 1; bacteriocin Nisin in shrimp feed at 0.84, 8.4 and 84 mg/g in Example 2 (ITSISLCTPGCKTGALMGCNMKTATCHCSIHVSK; cysteine pairing not given here; also: lantibiotic, modifications not placed; UniProt P13068 24-57, looked up)”, the minimal inhibitory concentration (MIC) is 1,057.5 ug/mL and 33.1 ug/mL and 66.1 ug/mL and 528.8 ug/mL and 8.3 ug/mL and 1.06 wt/v % and 0.03 wt/v % and 0.07 wt/v % and 0.53 wt/v % and 0.01 wt/v % with Vibrio parahaemolyticus; 8.3 ug/mL and 66.1 ug/mL and 2,115.0 ug/mL and 0.01 wt/v % and 0.07 wt/v % and 2.12 wt/v % with Vibrio alginolyticus; 1,057.5 ug/mL and 8.3 ug/mL and 2,115.0 ug/mL and 132.2 ug/mL and 1.06 wt/v % and 0.01 wt/v % and 2.12 wt/v % and 0.13 wt/v % against Vibrio cholerae. In addition, the “MIC compared with negative control” value with pathogenic Vibrio is listed as “significantly smaller MIC than the negative control”.
